Data taken from the NIST ThermoML archive (doi:10.1016/j.fluid.2005.04.003).
± gives the expanded uncertainty stated by the source.

Legend:
[1] = Liquid; for mass density: 298.15 K, 101.33 kPa
[2] = refractive index (Na D-line) (dimensionless); conditions: 298.15 K; 101.33 kPa; Liquid; Standard Abbe refractometry

SMILES | mass density [1] | Normal boiling temperature [1] | refractive index [2]
CCOC(C)(C)CC [1,1-dimethylpropyl ethyl ether] | 760.57 ± 0.66 kg/m3 | 101.42 ± 0.08 °C | 1.38857 ± 0.00072
CCO [ethanol] | 785.22 ± 0.64 kg/m3 | 78.29 ± 0.08 °C | 1.3592 ± 0.00073
CO [methanol] | 786.63 ± 0.63 kg/m3 | 64.4 ± 0.08 °C | 1.3264 ± 0.0007
